# Laboratory results as given in patent US12606528B2, “Methods and materials for inhibiting NF-kB activity” (University of Pittsburgh - Of the Commonwealth System of …, priority 2019, dated 2026).
# Like-named read-outs stand apart in the source and are kept apart here.
# What was measured:
# TNF release = assay: TNF assay: TNF release from LPS-stimulated human PBMCs (TNF ELISA); type: cell-based; settings: PBMC, read-out: IC50 (TNF assay)
# How it was run: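 Human PBMCs at 10k/well pretreated with compound dilutions 2 h, then stimulated with LPS (10 ng/mL) for 18 h. TNF in supernatants quantified by ELISA; IC50 for inhibition of TNF release fitted from concentration–response.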
# NF-κB = NF-κB assay: THP1-NF-κB-LUC cells, LPS-stimulated secreted luciferase; type: cell-based; settings: THP1-NF-κB-LUC cells, read-out: IC50 (NF-κB assay)
# How it was run: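 THP1-NF-κB-LUC cells (25k/well) were pretreated with compounds for 2 h, then stimulated with LPS (10 ng/mL) for 18 h. Secreted luciferase was measured and normalized to vehicle, and IC50 was fitted from the concentration series.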
# [1] = human PBMCs, compounds 2 hours before LPS (10 ng/ml) for 18 hours, supernatant TNF ELISA
# [2] = compounds 2 hours before LPS (10 ng/mL) for 18 hours, secreted luciferase
# [3] = LPS-stimulated human PBMCs, TNF ELISA
Structure (SMILES),IC50 (TNF release; [1]) [µM],IC50 (NF-κB; [2]) [nM],IC50 (TNF release; [3]) [µM],IC50 (NF-κB; LPS-stimulated) [nM]
CS(=O)(=O)c1cc2c(c(S(=O)(=O)Nc3ccc(F)cc3Cl)c1)OCC(=O)N2 [BC19428],> 10,100 to 1000,–,–
COc1ccc(NS(=O)(=O)c2cc(S(C)(=O)=O)cc3c2OCC(=O)N3)cc1Cl [BC19429],> 10,> 10000,–,–
CS(=O)(=O)c1cc2c(c(S(=O)(=O)Nc3ccc(F)cc3)c1)OCC(=O)N2 [BC19430],> 10,< 100,–,–
CS(=O)(=O)c1cc2c(c(S(=O)(=O)Nc3ccc(C#N)cc3)c1)OCC(=O)N2 [BC19431],> 10,< 100,–,–
Cc1ccc(NS(=O)(=O)c2c(C)c(Cl)cc3c2OCC(=O)N3)cc1 [BC19432],> 10,100 to 1000,–,–
Cc1ccc(NS(=O)(=O)c2c(C)c(Cl)cc3c2OCC(=O)N3)cc1Cl [BC19433],> 10,< 100,–,–
Cc1c(Cl)cc2c(c1S(=O)(=O)Nc1ccc(Cl)cc1)OCC(=O)N2 [BC19434],> 10,< 100,–,–
CCS(=O)(=O)c1cc2c(c(S(=O)(=O)Nc3ccc(OC(F)(F)F)cc3)c1)OCC(=O)N2 [BC19435],> 10,< 100,–,–
CCS(=O)(=O)c1cc2c(c(S(=O)(=O)Nc3ccc(C)c(F)c3)c1)OCC(=O)N2 [BC19436],> 10,< 100,–,–
CCS(=O)(=O)c1cc2c(c(S(=O)(=O)Nc3ccccc3)c1)OCC(=O)N2 [BC19437],> 10,< 100,–,–
CCS(=O)(=O)c1cc2c(c(S(=O)(=O)Nc3ccc(OC)cc3)c1)OCC(=O)N2 [BC19438],> 10,< 100,–,–
CCc1cccc(NS(=O)(=O)c2cc(S(=O)(=O)CC)cc3c2OCC(=O)N3)c1 [BC19439],> 10,< 100,–,–
CCS(=O)(=O)c1cc2c(c(S(=O)(=O)Nc3cccc(F)c3)c1)OCC(=O)N2 [BC19440],> 10,< 100,–,–
CCS(=O)(=O)c1cc2c(c(S(=O)(=O)Nc3cccc(Cl)c3)c1)OCC(=O)N2 [BC19441],> 10,< 100,–,–
CCS(=O)(=O)c1cc2c(c(S(=O)(=O)Nc3ccc(F)cc3Cl)c1)OCC(=O)N2 [BC19442],> 10,100 to 1000,–,–
CCS(=O)(=O)c1cc2c(c(S(=O)(=O)Nc3ccc(F)cc3)c1)OCC(=O)N2 [BC19443],> 10,< 100,–,–
Cn1cnnc1-c1ccc2nc(-c3ccc(F)cc3F)c(-c3ccccc3)nc2c1 [BC19444],–,–,> 10,100 to 1000
CN1CCN(C(=O)c2ccc3nc(-c4ccc(OC(F)(F)F)cc4)c(-c4ccc(OC(F)(F)F)cc4)nc3c2)CC1 [BC19445],–,–,> 10,> 10000
CN1CCN(C(=O)c2ccc3nc(-c4ccc(C#N)cc4)c(-c4ccc(C#N)cc4)nc3c2)CC1 [BC19446],–,–,> 10,> 10000

# Other lines, results leading:
IC50 (TNF release; [1]) [µM],IC50 (NF-κB; [2]) [nM],IC50 (TNF release; [3]) [µM],IC50 (NF-κB; LPS-stimulated) [nM],Structure (SMILES)
–,–,> 10,> 10000,CNC(=O)c1ccc2nc(-c3ccc(OC(F)(F)F)cc3)c(-c3ccc(OC(F)(F)F)cc3)nc2c1 [BC19447]
–,–,> 10,100 to 1000,Oc1ccc2nc(-c3ccc(F)cc3)c(-c3ccc(F)cc3)nc2n1 [BC19448]
–,–,> 10,> 10000,O=C(O)c1ccc2nc(-c3ccc(OC(F)(F)F)cc3)c(-c3ccc(OC(F)(F)F)cc3)nc2c1 [BC19449]
–,–,> 10,1000 to 10000,CN1CCN(C(=O)c2ccc3nc(-c4ccc(Cl)cc4)c(-c4ccc(Cl)cc4)nc3c2)CC1 [BC19450]
–,–,> 10,100 to 1000,C#CCNC(=O)c1ccc2nc(-c3ccc(Cl)cc3)c(-c3ccc(Cl)cc3)nc2c1 [BC19451]
–,–,> 10,100 to 1000,O=C(NCCO)c1ccc2nc(-c3ccc(Cl)cc3)c(-c3ccc(Cl)cc3)nc2c1 [BC19452]
–,–,> 10,> 10000,O=C(NCCO)c1ccc2nc(-c3ccc(OC(F)(F)F)cc3)c(-c3ccc(OC(F)(F)F)cc3)nc2c1 [BC19453]
> 10,> 10000,–,–,O=c1[nH]ccc2cc([S+]([O-])c3ccccc3)ccc12 (centres unmarked) [BC19454]
> 10,> 10000,–,–,COc1ccc(S(=O)(=O)c2cnccc2O)cc1OC [BC19455]
